Results reported in US10004701B2, “Methods and compositions for treating infection” (UNIVERSITY OF ROCHESTER, priority 2012, dated 2018).
Structures can show the parent of a compound that is named as a salt. Where two headings read alike, the source gives them in different places.

Legend:
Assay in all cases: AK assay 384-well format, Prestwick library screening
E. faecium = type: cell-based, Enterococcus faecium; conditions: for fold induction at 50 µM: Enterococcus faecium, 3 h
P. aeruginosa = type: cell-based, Pseudomonas aeruginosa; conditions: for fold induction at 50 µM: Pseudomonas aeruginosa, 3 h
[1] = test system: S. aureus strain USA300-0114; type: cell-based, Staphylococcus aureus; conditions: for fold induction at 50 µM: Staphylococcus aureus, USA300, 3 h
K. pneumoniae = type: cell-based, Klebsiella pneumoniae; conditions: for fold induction at 50 µM: Klebsiella pneumoniae, 3 h
E. cloacae = type: cell-based, Enterobacter cloacae; conditions: for fold induction at 50 µM: Enterobacter cloacae, 3 h
E. coli = type: cell-based, Escherichia coli; conditions: for fold induction at 50 µM: Escherichia coli, 3 h
[2] = test system: A. baumannii strain 98-37-09; type: cell-based, Acinetobacter baumannii; conditions: for fold induction at 50 µM: Acinetobacter baumannii, 983709, 3 h
[3] = 50 μM final drug concentration, 384-well format, cutoff for positive-scoring molecules 3-fold increase, read-out: AK-based Prestwick Library Screening Results, E. faecium (increase in extracellular AK activity)
[4] = 50 μM final drug concentration, 384-well format, cutoff for positive-scoring molecules 3-fold increase, read-out: AK-based Prestwick Library Screening Results, P. aeruginosa (increase in extracellular AK activity)
[5] = 50 μM final drug concentration, 384-well format, cutoff for positive-scoring molecules 3-fold increase, read-out: AK-based Prestwick Library Screening Results, S. aureus (increase in extracellular AK activity)
[6] = 50 μM final drug concentration, 384-well format, cutoff for positive-scoring molecules 3-fold increase, read-out: AK-based Prestwick Library Screening Results, K. pneumoniae (increase in extracellular AK activity)
[7] = 50 μM final drug concentration, 384-well format, cutoff for positive-scoring molecules 3-fold increase, read-out: AK-based Prestwick Library Screening Results, E. cloacae (increase in extracellular AK activity)
[8] = 50 μM final drug concentration, 384-well format, cutoff for positive-scoring molecules 3-fold increase, read-out: AK-based Prestwick Library Screening Results, E. coli (increase in extracellular AK activity)
[9] = 50 μM final drug concentration, 384-well format, cutoff for positive-scoring molecules 3-fold increase, read-out: AK-based Prestwick Library Screening Results, A. baumannii (increase in extracellular AK activity)
[10] = 50 μM final drug concentration, 384-well format, […]

## CC(N)CCCC(C)(C)O (centres unmarked) [Heptaminol hydrochloride]
E. faecium; [3]
  fold induction at 50 µM: 0.9
P. aeruginosa; [4]
  fold induction at 50 µM: 0.5
[1]; [5]
  fold induction at 50 µM: 0.7
K. pneumoniae; [6]
  fold induction at 50 µM: 0.5
E. cloacae; [7]
  fold induction at 50 µM: 0.7
E. coli; [8]
  fold induction at 50 µM: 0.8
[2]; [9]
  fold induction at 50 µM: 0.6

## Cytisine (−)
E. faecium
  AK-based Prestwick Library Screening Results, E. faecium (fold increase in extracellular AK activity): 1.0
P. aeruginosa
  AK-based Prestwick Library Screening Results, P. aeruginosa (fold increase in extracellular AK activity): 1.2
[1]
  AK-based Prestwick Library Screening Results, S. aureus (fold increase in extracellular AK activity): 1.0
K. pneumoniae
  AK-based Prestwick Library Screening Results, K. pneumoniae (fold increase in extracellular AK activity): 1.2
E. cloacae
  AK-based Prestwick Library Screening Results, E. cloacae (fold increase in extracellular AK activity): 1.5
E. coli
  AK-based Prestwick Library Screening Results, E. coli (fold increase in extracellular AK activity): 1.3
[2]
  AK-based Prestwick Library Screening Results, A. baumannii (fold increase in extracellular AK activity): 1.4

## C=C1CC[C@H](O)C/C1=C/C=C1\CCC[C@]2(C)[C@@H]([C@H](C)/C=C/[C@H](C)C(C)C)CC[C@@H]12 [Calciferol]
E. faecium; planktonic E. faecium, 50 μM final drug concentration, cutoff for positive-scoring molecules 3-fold increase, read-out: AK-based Prestwick Library Screening Results, E. faecium (increase in extracellular AK activity)
  fold induction at 50 µM: 0.9
P. aeruginosa; planktonic P. aeruginosa, 50 μM final drug concentration, cutoff for positive-scoring molecules 3-fold increase, read-out: AK-based Prestwick Library Screening Results, P. aeruginosa (increase in extracellular AK activity)
  fold induction at 50 µM: 0.7
[1]; planktonic S. aureus, 50 μM final drug concentration, cutoff for positive-scoring molecules 3-fold increase, read-out: AK-based Prestwick Library Screening Results, S. aureus (increase in extracellular AK activity)
  fold induction at 50 µM: 0.5
K. pneumoniae; planktonic K. pneumoniae, 50 μM final drug concentration, cutoff for positive-scoring molecules 3-fold increase, read-out: AK-based Prestwick Library Screening Results, K. pneumoniae (increase in extracellular AK activity)
  fold induction at 50 µM: 0.7
E. cloacae; planktonic E. cloacae, 50 μM final drug concentration, cutoff for positive-scoring molecules 3-fold increase, read-out: AK-based Prestwick Library Screening Results, E. cloacae (increase in extracellular AK activity)
  fold induction at 50 µM: 0.7
E. coli; planktonic E. coli, 50 μM final drug concentration, cutoff for positive-scoring molecules 3-fold increase, read-out: AK-based Prestwick Library Screening Results, E. coli (increase in extracellular AK activity)
  fold induction at 50 µM: 0.8
[2]; planktonic A. baumannii, 50 μM final drug concentration, cutoff for positive-scoring molecules 3-fold increase, read-out: AK-based Prestwick Library Screening Results, A. baumannii (increase in extracellular AK activity)
  fold induction at 50 µM: 0.7

## CC1=NCCc2c1[nH]c1cc(O)ccc21 [Harmalol hydrochloride dihydrate]
E. faecium; 50 μM final drug concentration, planktonic, cutoff for positive 3-fold increase, read-out: AK-based Prestwick Library Screening Results, E. faecium (fold increase in extracellular AK activity)
  fold induction at 50 µM: 1
P. aeruginosa; 50 μM final drug concentration, planktonic, cutoff for positive 3-fold increase, read-out: AK-based Prestwick Library Screening Results, P. aeruginosa (fold increase in extracellular AK activity)
  fold induction at 50 µM: 1.2
[1]; 50 μM final drug concentration, planktonic, cutoff for positive 3-fold increase, read-out: AK-based Prestwick Library Screening Results, S. aureus (fold increase in extracellular AK activity)
  fold induction at 50 µM: 0.8
K. pneumoniae; 50 μM final drug concentration, planktonic, cutoff for positive 3-fold increase, read-out: AK-based Prestwick Library Screening Results, K. pneumoniae (fold increase in extracellular AK activity)
  fold induction at 50 µM: 0.8
E. cloacae; 50 μM final drug concentration, planktonic, cutoff for positive 3-fold increase, read-out: AK-based Prestwick Library Screening Results, E. cloacae (fold increase in extracellular AK activity)
  fold induction at 50 µM: 1.6
E. coli; 50 μM final drug concentration, planktonic, cutoff for positive 3-fold increase, read-out: AK-based Prestwick Library Screening Results, E. coli (fold increase in extracellular AK activity)
  fold induction at 50 µM: 1.2
[2]; 50 μM final drug concentration, planktonic, cutoff for positive 3-fold increase, read-out: AK-based Prestwick Library Screening Results, A. baumannii (fold increase in extracellular AK activity)
  fold induction at 50 µM: 1.1

## CCN(CC)CC(=O)Nc1c(C)cccc1C [Lidocaine hydrochloride]
E. faecium; planktonic E. faecium, 50 μM final drug concentration, 384-well, cutoff for positive-scoring molecules 3-fold increase, read-out: AK-based Prestwick Library Screening Results: E. faecium (increase in extracellular AK activity)
  fold induction at 50 µM: 1.2
P. aeruginosa; planktonic P. aeruginosa, 50 μM final drug concentration, 384-well, cutoff for positive-scoring molecules 3-fold increase, read-out: AK-based Prestwick Library Screening Results: P. aeruginosa (increase in extracellular AK activity)
  fold induction at 50 µM: 1.1
[1]; planktonic S. aureus, 50 μM final drug concentration, 384-well, cutoff for positive-scoring molecules 3-fold increase, read-out: AK-based Prestwick Library Screening Results: S. aureus (increase in extracellular AK activity)
  fold induction at 50 µM: 1.1
K. pneumoniae; planktonic K. pneumoniae, 50 μM final drug concentration, 384-well, cutoff for positive-scoring molecules 3-fold increase, read-out: AK-based Prestwick Library Screening Results: K. pneumoniae (increase in extracellular AK activity)
  fold induction at 50 µM: 1.1
E. cloacae; planktonic E. cloacae, 50 μM final drug concentration, 384-well, cutoff for positive-scoring molecules 3-fold increase, read-out: AK-based Prestwick Library Screening Results: E. cloacae (increase in extracellular AK activity)
  fold induction at 50 µM: 1.3
E. coli; planktonic E. coli, 50 μM final drug concentration, 384-well, cutoff for positive-scoring molecules 3-fold increase, read-out: AK-based Prestwick Library Screening Results: E. coli (increase in extracellular AK activity)
  fold induction at 50 µM: 1.3
[2]; planktonic A. baumannii, 50 μM final drug concentration, 384-well, cutoff for positive-scoring molecules 3-fold increase, read-out: AK-based Prestwick Library Screening Results: A. baumannii (increase in extracellular AK activity)
  fold induction at 50 µM: 1.1

## Cn1c(=O)c2c(ncn2CC(O)CO)n(C)c1=O (centres unmarked) [Diprophylline]
E. faecium; [3]
  fold induction at 50 µM: 0.9
P. aeruginosa; [4]
  fold induction at 50 µM: 0.7
[1]; [5]
  fold induction at 50 µM: 0.7
K. pneumoniae; [6]
  fold induction at 50 µM: 0.6
E. cloacae; [7]
  fold induction at 50 µM: 1.1
E. coli; [8]
  fold induction at 50 µM: 1
[2]; [9]
  fold induction at 50 µM: 0.8

## CC(N)C(O)c1ccccc1 (centres unmarked) [Phenylpropanolamine hydrochloride]
E. faecium; read-out: AK-based Prestwick Library Screening Results: E. faecium (increase in extracellular AK activity)
  fold induction at 50 µM: 0.8
P. aeruginosa; read-out: AK-based Prestwick Library Screening Results: P. aeruginosa (increase in extracellular AK activity)
  fold induction at 50 µM: 0.4
[1]; read-out: AK-based Prestwick Library Screening Results: S. aureus (increase in extracellular AK activity)
  fold induction at 50 µM: 0.3
K. pneumoniae; read-out: AK-based Prestwick Library Screening Results: K. pneumoniae (increase in extracellular AK activity)
  fold induction at 50 µM: 0.5
E. cloacae; read-out: AK-based Prestwick Library Screening Results: E. cloacae (increase in extracellular AK activity)
  fold induction at 50 µM: 0.4
E. coli; read-out: AK-based Prestwick Library Screening Results: E. coli (increase in extracellular AK activity)
  fold induction at 50 µM: 0.5
[2]; read-out: AK-based Prestwick Library Screening Results: A. baumannii (increase in extracellular AK activity)
  fold induction at 50 µM: 0.4

## COc1cc2nc(N3CCN(C(=O)C4CCCO4)CC3)nc(N)c2cc1OC (centres unmarked) [Terazosin hydrochloride]
E. faecium; 50 μM final drug concentration, planktonic, cutoff for positive-scoring molecules 3-fold increase, read-out: AK-based Prestwick Library Screening Results, E. faecium (fold increase in extracellular AK activity)
  fold induction at 50 µM: 0.8
P. aeruginosa; 50 μM final drug concentration, planktonic, cutoff for positive-scoring molecules 3-fold increase, read-out: AK-based Prestwick Library Screening Results, P. aeruginosa (fold increase in extracellular AK activity)
  fold induction at 50 µM: 0.6
[1]; 50 μM final drug concentration, planktonic, cutoff for positive-scoring molecules 3-fold increase, read-out: AK-based Prestwick Library Screening Results, S. aureus (fold increase in extracellular AK activity)
  fold induction at 50 µM: 0.8
K. pneumoniae; 50 μM final drug concentration, planktonic, cutoff for positive-scoring molecules 3-fold increase, read-out: AK-based Prestwick Library Screening Results, K. pneumoniae (fold increase in extracellular AK activity)
  fold induction at 50 µM: 0.7
E. cloacae; 50 μM final drug concentration, planktonic, cutoff for positive-scoring molecules 3-fold increase, read-out: AK-based Prestwick Library Screening Results, E. cloacae (fold increase in extracellular AK activity)
  fold induction at 50 µM: 1.2
E. coli; 50 μM final drug concentration, planktonic, cutoff for positive-scoring molecules 3-fold increase, read-out: AK-based Prestwick Library Screening Results, E. coli (fold increase in extracellular AK activity)
  fold induction at 50 µM: 0.8
[2]; 50 μM final drug concentration, planktonic, cutoff for positive-scoring molecules 3-fold increase, read-out: AK-based Prestwick Library Screening Results, A. baumannii (fold increase in extracellular AK activity)
  fold induction at 50 µM: 0.7

## C[N+](C)(C)CCCCCC[N+](C)(C)C.O.O.[Br-].[Br-] [Hexamethonium dibromide dihydrate]
E. faecium; [10]
  AK-based Prestwick Library Screening Results, E. faecium (increase in extracellular AK activity): 0.9
P. aeruginosa; [10]
  AK-based Prestwick Library Screening Results, P. aeruginosa (increase in extracellular AK activity): 0.8
[1]; [10]
  AK-based Prestwick Library Screening Results, S. aureus (increase in extracellular AK activity): 0.7
K. pneumoniae; [10]
  AK-based Prestwick Library Screening Results, K. pneumoniae (increase in extracellular AK activity): 0.7
E. cloacae; [10]
  AK-based Prestwick Library Screening Results, E. cloacae (increase in extracellular AK activity): 1.2
E. coli; [10]
  AK-based Prestwick Library Screening Results, E. coli (increase in extracellular AK activity): 0.9
[2]; [10]
  AK-based Prestwick Library Screening Results, A. baumannii (increase in extracellular AK activity): 0.9

## CN(C)C/C=C(/c1ccc(Br)cc1)c1cccnc1 [Zimelidine dihydrochloride monohydrate]
E. faecium; [3]
  fold induction at 50 µM: 0.9
P. aeruginosa; [4]
  fold induction at 50 µM: 0.6
[1]; [5]
  fold induction at 50 µM: 0.8
K. pneumoniae; [6]
  fold induction at 50 µM: 0.5
E. cloacae; [7]
  fold induction at 50 µM: 0.8
E. coli; [8]
  fold induction at 50 µM: 0.7
[2]; [9]
  fold induction at 50 µM: 0.7

## Nc1ccc(S(=O)(=O)Nc2ccnn2-c2ccccc2)cc1 [Sulfaphenazole]
E. faecium; [3]
  fold induction at 50 µM: 0.8
P. aeruginosa; [4]
  fold induction at 50 µM: 0.8
[1]; [5]
  fold induction at 50 µM: 0.8
K. pneumoniae; [6]
  fold induction at 50 µM: 0.7
E. cloacae; [7]
  fold induction at 50 µM: 0.8
E. coli; [8]
  fold induction at 50 µM: 0.8
[2]; [9]
  fold induction at 50 µM: 1.4
